Entries after “also recorded” stand apart in the source; their conditions may differ. Read-outs that look alike come from different tables or passages of the source.
Tests used:
H3347 carcinoma cells = test: Anti-phosphotyrosine immunoblot; type: cell-based, human
PP1 = test: Serine/threonine phosphatase PP1 inhibition; type: biochemical; details: vs CD45 and PTP1B
Ramos = test: [3H]thymidine incorporation assay; type: cell-based, human; details: for [3H]cpm incorporation: seven days
Method: (§1) For each cell type, the cells were passaged uniformly for all drug doses given during the seven-day period. The cells were then pulsed for six hours with [^3 H]thymidine. The extent of DNA synthesis was then determined by counting the radioactivity incorporated into the cells.
(§2) For assays of cellular proliferation, cells were grown five days in the presence of the indicated concentrations of BMLOV, pulsed 6 hr with [^3 H]-thymidine (New England Nuclear, Boston, Mass.), and counted in a liquid scintillation counter. Human peripheral blood lymphocytes (PBL) from normal volunteers were isolated from lymphocyte separation medium (Litton Bionetics, Kensington, Md.) by density gradient centrifugation. Monocytes were depleted from PBL by two rounds of plastic absorption for 30 minutes at 37° C. B cells were enriched for by negative selection using complement plus monoclonal antibodies to CD2, CD3, CD4, and CD8 for complement depletion. Clonogenic assays of colony formation in methylcellulose medium were performed as previously described (F. M. Uckun et al. (1992), supra).
The effect of the variation of treatment time with pV(phen) on the inhibition of proliferation in Ramos cells is shown in Table 11. These cells were grown in pV(phen) for the indicated times, washed, and then grown in fresh media for the balance of the 5-day assay. These cells were pulsed with [^3 H]-thymidine on day 5.

Ramos cells = test: Anti-phosphotyrosine western blot of cell lysates; type: cell-based, human
A20 = test: [3H]thymidine incorporation assay; type: cell-based, murine; details: for [3H]cpm incorporation: seven days; for [3H]-thymidine radioactivity incorporated: 5 days
Method: as §1, §2
The cell lines A20, 70Z-3, L1210, and P388D were used. A20 is a B cell lymphoma cell line; 70Z/3 is a B cell leukemia cell line; L1210 is a T cell leukemia cell line; and P388D is a myeloid leukemia cell line. The cells were grown for 5 days in the presence of pV(phen) and pulsed with [^3 H]-thymidine on day 5. The extent of DNA synthesis was then determined by counting the radioactivity incorporated into the cells, as in Example 5, supra. […] The effects on L1210 cells and P388D cells are particularly noteworthy because these cell lines have been extensively used by the National Cancer Institute to identify anti-cancer drugs.

[1] = tested on: mixed lymphocyte response cultures dependent on CD28 costimulation; test: Mixed lymphocyte response cultures; type: cell-based; details: 0.5 to 5 μM BMLOV
Method: Mixed lymphocyte response cultures that are dependent on CD28 costimulation were inhibited by over 50% by 0.5 to 5 μM BMLOV (FIG. 8).

Jurkat = test: Anti-phosphotyrosine immunoblot; type: cell-based, human
PP2A = target: T1, PP2A (Homo sapiens, UniProt P67775); test: Serine/threonine phosphatase PP2A inhibition; type: biochemical; details: vs CD45 and PTP1B
T1 construct: purchased Upstate Biotechnology, Lake Placid, N.Y
T1 sequence (P67775 whole entry): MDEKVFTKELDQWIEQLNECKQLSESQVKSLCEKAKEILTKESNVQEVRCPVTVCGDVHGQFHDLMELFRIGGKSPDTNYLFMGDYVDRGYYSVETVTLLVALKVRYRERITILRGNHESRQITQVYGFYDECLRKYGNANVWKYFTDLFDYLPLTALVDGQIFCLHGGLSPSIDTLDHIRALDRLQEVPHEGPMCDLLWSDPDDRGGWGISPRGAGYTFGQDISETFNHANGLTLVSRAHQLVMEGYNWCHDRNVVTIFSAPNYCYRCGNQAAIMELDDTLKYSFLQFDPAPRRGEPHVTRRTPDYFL

CEM = type: cell-based, human
Source text: The extent to which the T cells were being killed by BMLOV treatment relative to the Ramos B cells was therefore examined. […] The percentage of cells in each quadrant is indicated. The lower right quadrant contains the viable cells.

Syk tyrosine kinase = test: Syk tyrosine phosphorylation (anti-Syk immunoprecipitate, anti-phosphotyrosine blot) in Ramos B cells; type: cell-based, human; details: 16 hours, no antigen receptor stimulation
Method: BMLOV is known to inhibit Src-family tyrosine kinases. […] Ramos B cells were treated with the indicated concentrations of BMLOV or pV(phen) for 16 hours. The cells were then lysed and the Syk tyrosine kinase was immunoprecipitated with anti-Syk antibodies. The tyrosine phosphorylation of Syk was examined by an anti-phosphotyrosine Western blot of the immunoprecipitated Syk protein following SDS-polyacrylamide gel electrophoresis (shown at left). The amount of Syk protein recovered was determined by anti-Syk Western blotting of identical samples (shown at right).
In the experiments shown in FIG. 23, cells were treated 16 h with BMLOV and then stimulated with α-μ for 5 min. Cells were then washed and resuspended in fresh media at equal concentrations of BMLOV at 37° C. Cells were harvested and lysted at times following the initiation of α-μ stimulation as indicated. Antibody binding in immunoblots was detected by ECL.

HCT116(VM)46 = test: In vitro cytotoxicity, XTT assay
Method: (§3) The vanadate compound pV(phen) was tested for in vitro cytotoxicity in a panel of human tumor cell lines. The cell lines used were a human colon carcinoma cell line, HCT116, and two drug-resistant sublines. The HCT116(VM46) subline was selected for resistance to VM-26 and expresses the multidrug resistant (MDR) phenotype including resistance to lipophilic anticancer drugs such as paclitaxel, VP-16, VM-26, doxorubicin, and vinblastine. This cell line overexpresses P-glycoprotein, a cell surface drug efflux pump, which limits accumulation of anticancer drugs such as the ones mentioned above. […] The compound pV(phen) was also evaluated in the ovarian carcinoma cell line A2780 and a paclitaxel resistant subline A2780-Tax22.
(§4) In the cytotoxicity assays, cells were plated and 24 hr later drugs were added and serially diluted. After 72 hr of continuous drug exposure, the tetrazolium dye XTT was added. A dehydrogenase enzyme in live cells reduces the XTT to a form that absorbs light at 450 nm which can be quantitated spectrophotometrically. The greater absorbance, the greater is the number of live cells. The results are expressed as a IC50 which is a drug concentration required to inhibit cell proliferation (i.e., absorbance at 450 nm) to 50% of that of untreated control cells.

A2780/Tax22 = test: In vitro cytotoxicity, XTT assay
Method: as §3, §4

HCT116(VP)35 = test: In vitro cytotoxicity, XTT assay
Method: as §3, §4

## Cc1occc(=O)c1[O-].Cc1occc(=O)c1[O-].[O]=[V+2] [BMLOV, Bis(maltolato)oxovanadium (IV)]
H3347 carcinoma cells
  induction of tyrosine phosphorylation: weakly induce tyrosine phosphorylation
PP1
  concentration for similar inhibition relative to phosphotyrosine phosphatases: over 100 fold
Ramos; 1 μM BMLOV
  [3H]cpm incorporation: 289936 cpm
Ramos; 5 μM BMLOV
  [3H]cpm incorporation: 65545 cpm
Ramos; 10 μM BMLOV
  [3H]cpm incorporation: 167 cpm
Ramos; 25 μM BMLOV
  [3H]cpm incorporation: 149 cpm
Ramos; 10 and 25 μM, 5 or 7 days
  sensitivity of proliferation to BMLOV, in words: highly sensitive
Ramos cells; 50 μM BMLOV, 16 hours
  level of tyrosine phosphorylation: high levels of tyrosine phosphorylation
Ramos cells; 100 μM BMLOV
  time at which tyrosine phosphorylation begins: ≤ 8 min
Ramos cells; 100 μM each, 30 min
  induction of tyrosine phosphorylation compared with sodium orthovanadate: more potent than orthovanadate
Ramos cells; Ramos B cells, varying doses, 1 hour or 16 h
  induction of cellular tyrosine phosphorylation: induces tyrosine phosphorylation in a dose-dependent manner; also recorded: dose-dependent induction of tyrosine phosphorylation
Ramos cells; particularly at early time points
  tyrosine phosphorylation response to sIg crosslinking: enhanced the tyrosine phosphorylation response
A20; 1 μM BMLOV
  [3H]cpm incorporation: 419947 cpm
A20; 5 μM BMLOV
  [3H]cpm incorporation: 289932 cpm
A20; 10 μM BMLOV
  [3H]cpm incorporation: 66157 cpm
A20; 25 μM BMLOV
  [3H]cpm incorporation: 281 cpm
A20; 25 μM, 5 or 7 days
  sensitivity of proliferation to BMLOV, in words: very sensitive; also recorded: highly sensitive
[1]
  inhibition of mixed lymphocyte response: over 50%
Jurkat; 16 hr
  induction of tyrosine phosphorylation: only low levels of tyrosine phosphorylation
PP2A
  concentration for similar inhibition relative to phosphotyrosine phosphatases: over 100 fold
CEM; CEM, 25 μM BMLOV, 4 days
  killing by BMLOV, in words: resistant to killing
Syk tyrosine kinase
  tyrosine phosphorylation of Syk: only very slight tyrosine phosphorylation of Syk; also recorded: induced tyrosine phosphorylation of Syk in a dose-dependent manner

## [Na+].[O]=[V-]12([O][O]1)[O][O]2.c1cnc2c(c1)ccc1cccnc12 [pV(phen), sodium (1,10-phenanthroline) oxodiperoxovanadium (V)]
Ramos; 1 μM pV(phen) for 4 hr, then fresh media to day 5
  [3H] Thymidine Incorporation: 540438 ± 86014 cpm
Ramos; 1 μM pV(phen) for 8 hr, then fresh media to day 5
  [3H] Thymidine Incorporation: 444806 ± 20361 cpm
Ramos; 1 μM pV(phen) for 24 hr, then fresh media to day 5
  [3H] Thymidine Incorporation: 396533 ± 16116 cpm
Ramos; 1 μM pV(phen) for 5 d
  [3H] Thymidine Incorporation: 1969 ± 1295 cpm
Ramos; 1 μM pV(phen), full 5-day treatment
  inhibition of proliferation: ≥ 99%
Ramos; 5 μM pV(phen) for 4 hr, then fresh media to day 5
  [3H] Thymidine Incorporation: 502956 ± 20963 cpm
Ramos; 5 μM pV(phen) for 8 hr, then fresh media to day 5
  [3H] Thymidine Incorporation: 351849 ± 7357 cpm
Ramos; 5 μM pV(phen) for 24 hr, then fresh media to day 5
  [3H] Thymidine Incorporation: 312 ± 83 cpm
Ramos; 5 μM pV(phen) for 5 d
  [3H] Thymidine Incorporation: 615 ± 268 cpm
Ramos; 10 μM pV(phen) for 4 hr, then fresh media to day 5
  [3H] Thymidine Incorporation: 554511 ± 10077 cpm
Ramos; 10 μM pV(phen) for 8 hr, then fresh media to day 5
  [3H] Thymidine Incorporation: 185021 ± 11112 cpm
Ramos; 10 μM pV(phen) for 24 hr, then fresh media to day 5
  [3H] Thymidine Incorporation: 1862 ± 1461 cpm
Ramos; 10 μM pV(phen) for 5 d
  [3H] Thymidine Incorporation: 982 ± 519 cpm
Ramos; 25 μM pV(phen) for 4 hr, then fresh media to day 5
  [3H] Thymidine Incorporation: 433034 ± 74272 cpm
Ramos; 25 μM pV(phen) for 8 hr, then fresh media to day 5
  [3H] Thymidine Incorporation: 877 ± 93 cpm
Ramos; 25 μM pV(phen) for 24 hr, then fresh media to day 5
  [3H] Thymidine Incorporation: 399 ± 231 cpm
Ramos; 25 μM pV(phen) for 5 d
  [3H] Thymidine Incorporation: 651 ± 295 cpm
HCT116(VM)46; hct116(vm46) cells, 72 h
  IC50: 2 µM
HCT116(VM)46; vs HCT116, 4320 min
  fold resistance relative to parental cell line: 0.2 fold
A2780/Tax22; a2780/tax22 cells, 72 h
  IC50: 7.5 µM
A2780/Tax22; vs A2780, 4320 min
  fold resistance relative to parental cell line: 0.9 fold
HCT116(VP)35; hct116(vp35) cells, 72 h
  IC50: 7.2 µM
HCT116(VP)35; vs HCT116, 4320 min
  fold resistance relative to parental cell line: 0.9 fold
Ramos cells; 16 hours, particularly at 10 μM
  proteins tyrosine phosphorylated, compared with BMLOV: causes the tyrosine phosphorylation of a significantly larger group of proteins than does BMLOV
Ramos cells; Ramos B cells, 16 hours
  induction of tyrosine phosphorylation by pV(phen): high level of tyrosine phosphorylation
A20; 5 μM pV(phen)
  [3H]-thymidine radioactivity incorporated: 73 ± 23
A20; 10 μM pV(phen)
  [3H]-thymidine radioactivity incorporated: 76 ± 48
Jurkat; Jurkat T cells, 16 hours
  induction of tyrosine phosphorylation by pV(phen): high level of tyrosine phosphorylation
CEM; CEM, 10 μM pV(phen), three days
  cells killed: all the cells
CEM; human, cem cells, 48 h, 10 µM
  cells killed: 98%
Syk tyrosine kinase
  tyrosine phosphorylation of Syk: strongly induces tyrosine phosphorylation of the Syk tyrosine kinase
